Columns and labels:
duck salad = assay: Test B flood test duck salad; assay type: in vivo, Heteranthera limosa
In short: (§1)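 Read-out is a visual response score from 0 (no effect) to 10 (complete control), assigned by comparison with untreated controls. Treatment was applied at the 2-leaf stage, and plants stayed in the greenhouse for twelve to sixteen days before scoring.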

sugar beet = assay: Test B pre/postemergence sugar beet; assay type: in vivo, Beta vulgaris; conditions: for Sugarbeets plant response rating: scale of 0 to 10 where 0 is no effect and 10 is complete control
In short: (§2)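 Response is a visual 0-to-10 score relative to untreated plants, where 0 means no effect and 10 means complete control, taken twelve to sixteen days after application. Treatments went onto soil at planting and onto foliage of 1- to 4-leaf plants, using a surfactant-containing non-phytotoxic solvent.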

rape = assay: Test B pre/postemergence rape; assay type: in vivo, Brassica napus; conditions: for Rape plant response rating: scale of 0 to 10 where 0 is no effect and 10 is complete control
In short: as §2

bamyardgrass = assay: Test B flood test barnyardgrass; assay type: in vivo, Echinochloa crus-galli
In short: as §1

velvetleaf = assay: Test B pre/postemergence velvetleaf; assay type: in vivo, Abutilon theophrasti; conditions: for Velvetleaf plant response rating: scale of 0 to 10 where 0 is no effect and 10 is complete control
In short: as §2

cocklebur = assay: Test B pre/postemergence cocklebur; assay type: in vivo, Xanthium strumarium; conditions: for Cocklebur plant response rating: scale of 0 to 10 where 0 is no effect and 10 is complete control
In short: as §2

pigweed = assay: Test B pre/postemergence pigweed; assay type: in vivo, Amaranthus retroflexus; conditions: for Redroot pigweed plant response rating: scale of 0 to 10 where 0 is no effect and 10 is complete control
In short: as §2

wild oat = assay: Test B pre/postemergence wild oat; assay type: in vivo, Avena fatua; conditions: for Wild oats plant response rating: scale of 0 to 10 where 0 is no effect and 10 is complete control
In short: as §2

bedstraw = assay: Test B pre/postemergence bedstraw; assay type: in vivo, Galium aparine
In short: as §2

soybean = assay: Test B pre/postemergence soybean; assay type: in vivo, Glycine max
In short: as §2

corn = assay: Test B pre/postemergence corn; assay type: in vivo, Zea mays; conditions: for Corn plant response rating: scale of 0 to 10 where 0 is no effect and 10 is complete control
In short: as §2

smallflower flatsedge = assay: Test B flood test smallflower flatsedge; assay type: in vivo, Cyperus difformis
In short: as §1

purple nutsedge = assay: Test B pre/postemergence purple nutsedge; assay type: in vivo, Cyperus rotundus; conditions: for Nutsedge plant response rating: scale of 0 to 10 where 0 is no effect and 10 is complete control
In short: as §2

blackgrass = assay: Test B pre/postemergence blackgrass; assay type: in vivo, Alopecurus myosuroides
In short: as §2

wheat = assay: Test B pre/postemergence wheat; assay type: in vivo, Triticum aestivum; conditions: for Wheat plant response rating: scale of 0 to 10 where 0 is no effect and 10 is complete control
In short: as §2

surinam grass = assay: Test B pre/postemergence surinam grass; assay type: in vivo, Brachiaria decumbens
In short: as §2

crabgrass = assay: Test B pre/postemergence crabgrass; assay type: in vivo, Digitaria sanguinalis; conditions: for Crabgrass plant response rating: scale of 0 to 10 where 0 is no effect and 10 is complete control
In short: as §2

morningglory = assay: Test B pre/postemergence morningglory; assay type: in vivo, Ipomoea hederacea; conditions: for Morningglory plant response rating: scale of 0 to 10 where 0 is no effect and 10 is complete control
In short: as §2

giant foxtail = assay: Test B pre/postemergence giant foxtail; assay type: in vivo, Setaria faberii; conditions: for Giant foxtail plant response rating: scale of 0 to 10 where 0 is no effect and 10 is complete control
In short: as §2

rice = assay: Test B flood test rice; assay type: in vivo, Oryza sativa
In short: as §1

[1] = Postemergence (flood test), Rate 125 g/ha, scale 0 to 10, 0 is no effect, 10 is complete control
[2] = Rate 62 g/ha, Postemergence (flood test species), scale of 0 to 10 where 0 is no effect and 10 is complete control
[3] = Rate 500 g/ha, listed under Postemergence (flood test species), scale 0 to 10, 0 no effect, 10 complete control
[4] = Postemergence, Rate 125 g/ha, scale 0 to 10, 0 is no effect, 10 is complete control
[5] = Preemergence, Rate 62 g/ha, scale 0 to 10 (0 no effect, 10 complete control)
[6] = Rate 500 g/ha, Postemergence, scale 0 to 10, 0 no effect, 10 complete control
[7] = Preemergence, Rate 250 g/ha, scale of 0 to 10 where 0 is no effect and 10 is complete control
[8] = Preemergence, Rate 500 g/ha, scale of 0 to 10 where 0 is no effect and 10 is complete control
[9] = Rate 62 g/ha, Postemergence, scale of 0 to 10 where 0 is no effect and 10 is complete control
[10] = Rate 250 g/ha, Postemergence, scale of 0 to 10 where 0 is no effect and 10 is complete control

CC(C)N(C(=O)n1oc(=O)n(C2CCCO2)c1=O)c1ccc(F)cc1 (centres unmarked) [Compound 345]
0: Plant response rating, Ducksalad (duck salad; [1]) | Ducksalad plant response rating (duck salad; [2]) | Plant response rating, Ducksalad (duck salad; [3]) | Plant response rating, Sugarbeets (sugar beet; [4]) | Plant response rating, Sugarbeets (sugar beet; [5]) | Sugarbeets plant response rating (0 to 10 scale) (sugar beet; Preemergence, Rate 125 g/ha) | Sugarbeets plant response rating (sugar beet; Preemergence, Rate 250 g/ha) | Sugarbeets plant response rating (sugar beet; Preemergence, Rate 500 g/ha) | Sugarbeets plant response rating (sugar beet; Rate 62 g/ha, Postemergence) | Plant response rating, Sugarbeets (sugar beet; [6]) | Plant response rating, Rape (rape; [4]) | Plant response rating, Rape (rape; [5]) | Rape plant response rating (0 to 10 scale) (rape; Preemergence, Rate 125 g/ha) | Rape plant response rating (rape; Preemergence, Rate 250 g/ha) | Rape plant response rating (rape; Preemergence, Rate 500 g/ha) | Rape plant response rating (rape; Rate 62 g/ha, Postemergence) | Plant response rating, Rape (rape; [6]) | Plant response rating, Barnyardgrass (bamyardgrass; [1]) | Barnyardgrass plant response rating (bamyardgrass; [2]) | Plant response rating, Barnyardgrass (bamyardgrass; Rate 250 g/ha, Postemergence (flood test species), scale of 0 to 10 where 0 is no effect and 10 is complete control) | Plant response rating, Barnyardgrass (bamyardgrass; [3]) | Plant response rating, Velvetleaf (velvetleaf; [4]) | Plant response rating, Velvetleaf (velvetleaf; [5]) | Velvetleaf plant response rating (0 to 10 scale) (velvetleaf; Preemergence, Rate 125 g/ha) | Velvetleaf plant response rating (velvetleaf; Preemergence, Rate 250 g/ha) | Velvetleaf plant response rating (velvetleaf; Preemergence, Rate 500 g/ha) | Velvetleaf plant response rating (velvetleaf; Rate 62 g/ha, Postemergence) | Plant response rating, Velvetleaf (velvetleaf; [6]) | Plant response rating, Cocklebur (cocklebur; [4]) | Plant response rating, Cocklebur (cocklebur; [5]) | Cocklebur plant response rating (0 to 10 scale) (cocklebur; Preemergence, Rate 125 g/ha) | Cocklebur plant response rating (cocklebur; Preemergence, Rate 250 g/ha) | Cocklebur plant response rating (cocklebur; Preemergence, Rate 500 g/ha) | Cocklebur plant response rating (cocklebur; Rate 62 g/ha, Postemergence) | Plant response rating, Cocklebur (cocklebur; [6]) | Plant response rating, Redroot pigweed (pigweed; [4]) | Plant response rating, Redroot pigweed (pigweed; [5]) | Redroot pigweed plant response rating (0 to 10 scale) (pigweed; Preemergence, Rate 125 g/ha) | Redroot pigweed plant response rating (pigweed; Preemergence, Rate 250 g/ha) | Redroot pigweed plant response rating (pigweed; Preemergence, Rate 500 g/ha) | Redroot pigweed plant response rating (pigweed; Rate 62 g/ha, Postemergence) | Plant response rating, Redroot pigweed (pigweed; [6]) | Plant response rating, Wild oats (wild oat; [4]) | Plant response rating, Wild oats (wild oat; [5]) | Wild oats plant response rating (0 to 10 scale) (wild oat; Preemergence, Rate 125 g/ha) | Wild oats plant response rating (wild oat; Preemergence, Rate 250 g/ha) | Wild oats plant response rating (wild oat; Preemergence, Rate 500 g/ha) | Wild oats plant response rating (wild oat; Rate 62 g/ha, Postemergence) | Plant response rating, Wild oats (wild oat; [6]) | Plant response rating, Bedstraw (bedstraw; [4]) | Plant response rating, Bedstraw (bedstraw; [5]) | Bedstraw plant response rating (0 to 10 scale) (bedstraw; Preemergence, Rate 125 g/ha) | Bedstraw plant response rating (bedstraw; [7]) | Bedstraw plant response rating (bedstraw; [8]) | Bedstraw plant response rating (bedstraw; [9]) | Plant response rating, Bedstraw (bedstraw; [10]) | Plant response rating, Bedstraw (bedstraw; [6]) | Plant response rating, Soybean (soybean; [4]) | Soybean plant response rating (0 to 10 scale) (soybean; Preemergence, Rate 125 g/ha) | Soybean plant response rating (soybean; [9]) | Plant response rating, Soybean (soybean; [6]) | Plant response rating, Corn (corn; [4]) | Plant response rating, Corn (corn; [5]) | Corn plant response rating (0 to 10 scale) (corn; Preemergence, Rate 125 g/ha) | Corn plant response rating (corn; Preemergence, Rate 250 g/ha) | Corn plant response rating (corn; Preemergence, Rate 500 g/ha) | Corn plant response rating (corn; Rate 62 g/ha, Postemergence) | Plant response rating, Corn (corn; [6]) | Plant response rating, S. Flatsedge (smallflower flatsedge; [1]) | S. Flatsedge plant response rating (smallflower flatsedge; [2]) | Plant response rating, S. Flatsedge (smallflower flatsedge; [3]) | Plant response rating, Nutsedge (purple nutsedge; [4]) | Plant response rating, Nutsedge (purple nutsedge; [5]) | Nutsedge plant response rating (0 to 10 scale) (purple nutsedge; Preemergence, Rate 125 g/ha) | Nutsedge plant response rating (purple nutsedge; Preemergence, Rate 250 g/ha) | Nutsedge plant response rating (purple nutsedge; Preemergence, Rate 500 g/ha) | Nutsedge plant response rating (purple nutsedge; Rate 62 g/ha, Postemergence) | Plant response rating, Nutsedge (purple nutsedge; [6]) | Plant response rating, Blackgrass (blackgrass; [4]) | Plant response rating, Blackgrass (blackgrass; [5]) | Blackgrass plant response rating (0 to 10 scale) (blackgrass; Preemergence, Rate 125 g/ha) | Blackgrass plant response rating (blackgrass; [7]) | Blackgrass plant response rating (blackgrass; [8]) | Blackgrass plant response rating (blackgrass; [9]) | Plant response rating, Blackgrass (blackgrass; [10]) | Plant response rating, Blackgrass (blackgrass; [6]) | Plant response rating, Wheat (wheat; [4]) | Plant response rating, Wheat (wheat; [5]) | Wheat plant response rating (0 to 10 scale) (wheat; Preemergence, Rate 125 g/ha) | Wheat plant response rating (wheat; Preemergence, Rate 250 g/ha) | Wheat plant response rating (wheat; Preemergence, Rate 500 g/ha) | Wheat plant response rating (wheat; Rate 62 g/ha, Postemergence) | Plant response rating, Wheat (wheat; [6]) | Plant response rating, B. signalgrass (surinam grass; [4]) | Plant response rating, B. signalgrass (surinam grass; [5]) | B. signalgrass plant response rating (0 to 10 scale, 0 is no effect, 10 is complete control) (surinam grass; Preemergence, Rate 125 g/ha) | B. signalgrass plant response rating (surinam grass; [7]) | B. signalgrass plant response rating (surinam grass; [8]) | B. signalgrass plant response rating (surinam grass; [9]) | Plant response rating, B. signalgrass (surinam grass; [10]) | Plant response rating, B. signalgrass (surinam grass; [6]) | Plant response rating, Crabgrass (crabgrass; [4]) | Plant response rating, Crabgrass (crabgrass; [5]) | Crabgrass plant response rating (0 to 10 scale) (crabgrass; Preemergence, Rate 125 g/ha) | Crabgrass plant response rating (crabgrass; Preemergence, Rate 250 g/ha) | Crabgrass plant response rating (crabgrass; Preemergence, Rate 500 g/ha) | Crabgrass plant response rating (crabgrass; Rate 62 g/ha, Postemergence) | Plant response rating, Crabgrass (crabgrass; [6]) | Plant response rating, Morningglory (morningglory; [4]) | Plant response rating, Morningglory (morningglory; [5]) | Morningglory plant response rating (0 to 10 scale) (morningglory; Preemergence, Rate 125 g/ha) | Morningglory plant response rating (morningglory; Preemergence, Rate 250 g/ha) | Morningglory plant response rating (morningglory; Preemergence, Rate 500 g/ha) | Morningglory plant response rating (morningglory; Rate 62 g/ha, Postemergence) | Plant response rating, Morningglory (morningglory; [6]) | Plant response rating, Giant foxtail (giant foxtail; [4]) | Plant response rating, Giant foxtail (giant foxtail; [5]) | Giant foxtail plant response rating (0 to 10 scale) (giant foxtail; Preemergence, Rate 125 g/ha) | Giant foxtail plant response rating (giant foxtail; Preemergence, Rate 250 g/ha) | Giant foxtail plant response rating (giant foxtail; Preemergence, Rate 500 g/ha) | Giant foxtail plant response rating (giant foxtail; Rate 62 g/ha, Postemergence) | Plant response rating, Giant foxtail (giant foxtail; [6]) | Plant response rating, Rice (rice; [1]) | Rice plant response rating (rice; [2]) | Plant response rating, Rice (rice; [3])
